Data from publication PMC6271731, “Multitarget Molecular Hybrids of Cinnamic Acids” (Molecules, 2014).
Read-outs that look alike come from different tables or passages of the source. Marks after values point to notes of the source that are not given here.

Assays:
[1] = tested on: acetic acid-induced writhing; experiment: Antinociceptive screen (writhing test); format: in vivo, Wistar rats; conditions: Rattus norvegicus, ip, 0.5 h, i.p. 30 min before 0.6% acetic acid, writhes counted over 30 min, read-out: % ANA (in vivo analgesic-antinociceptive activity)
Method: (§1) Anti-inflammatory tests were conducted on Fisher-344 inbred rats of ca. 200 g body weight whereas antinociception and motor and sensory functions after sciatic nerve crash were performed on Wistar rats. Both sexes were used. Females pregnant were excluded. Each group was composed of 6 animals. The animals, which have been bred in our laboratory, were housed under standard conditions and received a diet of commercial food pellets and water ad libitum during the maintenance. Our studies were carried out in accordance with recognised guidelines on animal experimentation.
[…] Controls received the liquid vehicle only. All the in vivo experiments were repeated at least in triplicate and were subjected to statistic analysis using the student’s t-test.
The writhing reflex was used. The test compounds were administered i.p. 30 min prior to the i.p. administration of 1 mL/100 g body weight of 0.6% acetic acid. […] After 5 min, the number of stretches characterized by repeated contractions of the abdominal musculature accompanied by extension of the hind limbs was counted every 5 min for the next 30 min. […] The % antinociceptive activity (a:a) was calculated as: % a:a = (n − n'/n) × 100 (a: a analgesic activity, n average number of writhes of control group, n' average number in the test group).

[2] = tested on: carrageenin-induced rat paw oedema; experiment: Inhibition of the carrageenin-induced rat paw oedema; format: in vivo, Fisher-344 rats; conditions: 0.01 mmol/1 kg, i.p., 3.5 h after carrageenin
Method: as §1
The tested compounds 0.01 mmol/kg body weight were suspended in water with few drops of Tween 80 and ground in a mortar before use. Controls received the liquid vehicle only. All the in vivo experiments were repeated at least in triplicate and were subjected to statistic analysis using the student’s t-test.
Oedema was induced in the right hind paw of Fisher 344 rats by the intradermal injection of 0.1 mL 2% carrageenin in water. Each group was composed of 6 animals which they were entirely fasted during the experiment period. The tested compounds 0.01 mmol/kg body weight, were given intraperitoneally simultaneously with the carrageenin injection. The rats were euthanized 3.5 h after carrageenin injection. The difference between the weight of the injected and not-injected paws was calculated for each animal. The change in paw weight was compared with that in control animals (treated with water) and expressed as a percent inhibition of the oedema (ICPE % values in Table 1). Indomethacin 0.01 mmol/kg was used as reference compound. ICPE % are the mean values from two different experiments with a standard error of the mean less than 10%.

[3] = tested on: sciatic nerve crush; experiment: Sciatic Functional Index after sciatic nerve crush; format: in vivo, Wistar rats
Text: SFI is the current standard for measuring functional recovery following rat sciatic nerve crush. Its calculation involves the measurement of wide-ranging relationships between feet and toes of the hindlimb of recovering animals. SFI values close to −100 indicate severe damage, while SFI values close to 0 indicate normal function. The treated rats improved their walk and the relationship between feet and toes of the crushed hindlimbs starting from day 14 to day 21.
One day prior to the surgery and the behavioral testing, Wistar rats were handled by the investigators and introduced to the testing environment for a brief period of time. Rats were anesthetized with chloral hydrate 4.5% (1 mL/100 g). […] After the exposure, the nerve was crushed once for 30 s at standardized force. The muscle was reapproximated and the skin incision was closed using 6 to 0 sutures. The examination of the loss of sensory and motor function in the operated limb established the crush completeness. Digits in the operated limb were pinched with a blunt forceps. Absence of foot withdrawal and vocalization was recorded as loss of sensory and motor function. Animals were placed under a heating lamp until they recovered from the anesthesia and they returned to their home cages.
The tested solutions were freshly prepared on surgery day (day 0).
[…] The day of the surgery is considered as day 0 [36, 37, 38].
In the present study, the plantar surfaces of the hindlimbs of the rats were impregnated with ink and then the animals were allowed to walk on a paper along a corridor, leaving footprints during walking.
A wooden corridor (1 m × 8 cm) with raised sidewalls was used. Two and a half white paper strips (40 × 7.5 cm) were placed along the corridor and were fixed with adhesive tape closely together and at the base and the sidewalls of the corridor. Each rat was trained to walk steadily along the corridor without stops until it made three at least successful efforts of continuous walking. The footprints were allowed to dry and were then converted into digital images using a computer and a high resolution scanner. The image processing was done by using the ImageJ. This is an open-source image analysis software created in 1997 by Rayne Rasband (National Institute of Health), widely used in medical applications, especially neuroscience, for measuring distances and surface and plotting the data. The footprints were analyzed as described by Bain et al. in measurements were included: • (i) print length (PL): distance from the heel to the third toe, • (ii) toe spread (TS) distance from the first to the fifth toe on both sides and • (iii) intermediate toe spread (ITS) the distance between the middle of the second and fourth toe
All measurements were taken both from the experimental (EPL, ETS, EIT) and the normal (NPL, NTS, NIT) side. The formula used to calculate SFI was the following: SFI = −38.3 (EPL − NPL)/NPL + 109.5 (ETS − NTS)/NTS + 13.3 (EIT − NIT)/NIT − 8.8

[4] = biological target: T1, soybean lipoxygenase (Glycine max, UniProt P08170); experiment: Soybean lipoxygenase inhibition in vitro; format: biochemical
T1 construct: purchased Sigma Chemical, Co. (St. Louis, MO, USA)
T1 sequence (P08170 1-839): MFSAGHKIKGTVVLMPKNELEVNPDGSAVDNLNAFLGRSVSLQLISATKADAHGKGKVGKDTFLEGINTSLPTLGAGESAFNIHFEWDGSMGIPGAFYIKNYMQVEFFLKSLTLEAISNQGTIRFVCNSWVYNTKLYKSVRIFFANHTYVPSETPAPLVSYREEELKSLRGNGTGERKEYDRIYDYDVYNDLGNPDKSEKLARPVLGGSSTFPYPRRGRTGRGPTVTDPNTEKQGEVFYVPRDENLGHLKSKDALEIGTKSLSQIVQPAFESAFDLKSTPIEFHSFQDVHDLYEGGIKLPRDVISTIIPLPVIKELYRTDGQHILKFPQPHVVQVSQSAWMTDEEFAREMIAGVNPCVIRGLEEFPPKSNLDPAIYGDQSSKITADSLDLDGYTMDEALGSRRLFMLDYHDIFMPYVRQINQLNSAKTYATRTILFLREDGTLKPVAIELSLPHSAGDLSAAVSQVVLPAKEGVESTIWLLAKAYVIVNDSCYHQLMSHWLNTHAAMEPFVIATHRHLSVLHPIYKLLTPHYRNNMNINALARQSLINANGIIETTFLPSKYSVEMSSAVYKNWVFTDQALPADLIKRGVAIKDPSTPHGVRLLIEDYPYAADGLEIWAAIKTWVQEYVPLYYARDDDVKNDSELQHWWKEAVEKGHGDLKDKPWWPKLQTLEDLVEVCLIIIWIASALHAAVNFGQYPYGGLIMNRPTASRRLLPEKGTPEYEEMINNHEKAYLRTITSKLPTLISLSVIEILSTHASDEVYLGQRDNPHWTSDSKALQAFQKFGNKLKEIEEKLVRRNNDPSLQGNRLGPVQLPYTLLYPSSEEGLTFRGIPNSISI
Method: DMSO solution of the tested compound was incubated with sodium linoleate (0.1 mM) and 0.2 mL of soybean lipoxygenase solution (1/9 × 10^−4 w/v in saline) in buffer pH 9 (tris) and at room temperature. […] The results are given in Table 1 expressed as IC50 values or % inhibition at 100 μM.

[5] = Inhibition of linoleic acid lipid peroxidation (AAPH); conditions: % inhibition at 100 μM; pH 7.4, 37 °C
Method: Production of conjugated diene hydroperoxide by oxidation of sodium linoleate in an aqueous dispersion is monitored at 234 nm. AAPH is used as a free radical initiator [12, 24]. Ten microlitres of the 16 mM sodium linoleate solution was added to the UV cuvette containing 930 μL of 0.05 M phosphate buffer, pH 7.4 prethermostated at 37 °C. The oxidation reaction was initiated at 37 °C under air by the addition of 40 mM AAPH solution (50 μL). Ten μL of the tested compounds were added in the mixture. Lipid oxidation was measured in the presence of the same level of DMSO. The rate of oxidation at 37 °C was monitored by recording the increase in absorption at 234 nm caused by conjugated diene hydroperoxides. The results were compared to the appropriate standard inhibitor trolox (63%) (Table 1).

[6] = Lipophilicity as RM values by RP-TLC; format: physicochemical; conditions: methanol/water 70/30, 24 °C, average of at least five measurements
Text: Since lipophilicity is a significant physicochemical property determining distribution, bioavailability, metabolic activity and elimination, we tried to determine experimentally the lipophilicity of the new substances by a RPTLC method as RM values (Table 1) and to compare them with the corresponding theoretically calculated clog p values in n-octanol-buffer. This is considered to be a reliable, fast and convenient method for expressing lipophilicity. Lipophilicity (Table 2), was theoretically calculated as Clog p values in n-octanol-buffer by the CLOGP Programme of Biobyte Corp..
Reversed phase TLC (RP-TLC) was performed on silica gel plates impregnated with 5% (v/v) liquid paraffin in light petroleum ether. The mobile phase was a methanol/water mixture (70/30, v/v). The plates were developed in closed chromatography tanks saturated with the mobile phase at 24 °C. Spots were detected under UV light. RM values were determined from the corresponding Rf values (from five individual measurements) using the equation RM = log [(1/Rf) − 1] (Table 1).

[7] = tested on: esterase; experiment: In vitro esterase activity on hybrids; format: in vitro ADME; conditions: 1 mM, phosphate buffer pH 7.8, 37 °C, 90 min and 24 h
Method: Representative hybrid molecules are subjected to an esterase activity in vitro. 100 μL of 1 mg/mL 0.001 N hydrochloric acid of esterase solution was added to 1,250 μL of phosphate buffer (0.1 M) pH 7.8 including the tested compounds (150 μL in DMSO, final concentration 1 mM) and incubated at 37 °C for 90 min. The incubated solution was allowed to set at room temperature. Then, the absorption was measured at 256 nm. The measurement was repeated after 24 h of incubation at 37 °C.

[8] = biological target: T2, pancreatic bovine trypsin (Bos taurus, UniProt P00760); experiment: Inhibition of trypsin induced proteolysis in vitro; format: biochemical; conditions: bovine albumin substrate, pH 7.6, 37 °C; read-out: IC50 μM Trypsin Inh.
T2 construct: purchased Sigma Chemical, Co. (St. Louis, MO, USA)
T2 sequence (P00760 24-246): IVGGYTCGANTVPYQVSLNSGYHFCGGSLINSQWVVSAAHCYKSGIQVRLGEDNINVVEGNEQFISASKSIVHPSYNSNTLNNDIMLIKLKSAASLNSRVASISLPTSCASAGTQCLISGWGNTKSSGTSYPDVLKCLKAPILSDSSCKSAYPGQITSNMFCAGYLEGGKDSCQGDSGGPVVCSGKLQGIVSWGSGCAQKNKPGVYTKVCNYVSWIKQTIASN
Text: All chemicals, solvents, chemical and biochemical reagents were of analytical grade and purchased from commercial sources (Merck, Merck KGaA, Darmstadt, Germany, Fluka Sigma-Aldrich Laborchemikalien GmbH, Hannover, Germany, Alfa Aesar, Karlsruhe, Germany and Sigma, St. Louis, MO, USA). Soybean lipoxygenase, pancreatic bovine trypsin, sodium linoleate, free radical DPPH and 2,2-azinobis-2-methyl-propanimidamine HCl (AAPH) were obtained from Sigma Chemical, Co. (St. Louis, MO, USA), carrageenin, type K, was commercially available. All starting materials were obtained from commercial sources and used without further purification.
The test was carried out according to a modified Kunitz method. Bovine albumin was used as substrate for trypsin. The reaction mixture consisted of 0.075 mg/mL trypsin (200 μL) and 780 μL of phosphate buffer pH 7.6 (including the tested compounds (20 μL in DMSO, final concentration 100 μM) preincubated at 37 °C for 20 min and then 1 mL of albumin (stock solution 6 g/100 mL in phosphate buffer 0.1 M, pH 7.6) was added and incubated at 37 °C for 30 min. After the incubation 1 mL of 5% trichloroacetic acid was added to the incubated solution to stop the enzyme’s reaction and allowed to set at room temperature for 1 h. Then the solution was filtered by filter paper and the absorption of the filtered solution was measured at 280 nm. Salicylic acid was used as a reference compound (Table 1).

[9] = single i.p. dose 0.01 mmol/mL/kg, 8 h after surgery
[10] = sodium linoleate 0.1 mM, tris buffer pH 9, room temperature, read-out: IC50 μM LOX Inh.

CC(=O)Nc1ccc(O)cc1 [Paracetamol, 4-acetamidophenol, reference compound]
inhibition in vivo at 0.01 mmol/0.1 kg [1]: 66% | % ICPE (carrageenin-induced rat paw oedema inhibition) [2]: 21 * % | % ICPE (carrageenin-induced rat paw oedema inhibition) ([2]; listed as paracetamol): 21% | SFI, Day before Crash ([3]; baseline before surgery and dosing): −12 | SFI, Day-1 [3, 9]: −93.3 | SFI, Day-7 [3, 9]: −93.3 | SFI, Day-14 [3, 9]: −36 | SFI, Day-21 [3, 9]: −18.5 | IC50 [4, 10]: 82 µM | AAPH % (% inhibition of lipid peroxidation) [5]: 91%

O=C(O)/C=C/c1ccc(OCc2ccc(Br)cc2)cc1 [II]
RM (±S.D.) [6]: −0.41 ± 0.026 | inhibition in vivo at 0.01 mmol/0.1 kg [1]: 67% | % ICPE (carrageenin-induced rat paw oedema inhibition) [2]: 41.6 * % | % ICPE (carrageenin-induced rat paw oedema inhibition) ([2]; listed as acid II): 44% | IC50 [4]: 66 µM | AAPH % (% inhibition of lipid peroxidation) [5]: 84%

COc1ccc2c(c1)c(CC(=O)O)c(C)n2C(=O)c1ccc(Cl)cc1 [Indomethacin, reference compound]
% ICPE (carrageenin-induced rat paw oedema inhibition) [2]: 47 * % | % ICPE (carrageenin-induced rat paw oedema inhibition) ([2]; listed as indomethacin): 47%

O=C(/C=C/c1cccc(Oc2ccccc2)c1)Oc1cc(=O)oc2ccccc12 [Compound 2b, (E)-2-Oxo-2H-chromen-4-yl 3-(3-phenoxyphenyl)acrylate]
RM (±S.D.) [6]: −0.661± 0.008 | hydrolysis of the ester group by esterase [7]: hydrolyzed | IC50 [4]: 100 µM | AAPH % (% inhibition of lipid peroxidation) [5]: 100% | IC50 [8]: 100 µM

O=C(O)/C=C/c1cccs1 [IV]
RM (±S.D.) [6]: −0.56 ± 0.019 | % ICPE (carrageenin-induced rat paw oedema inhibition) [2]: 42.7 * % | IC50 [4, 10]: 98 µM | AAPH % (% inhibition of lipid peroxidation) [5]: 60%

O=c1cc(O)c2ccccc2o1 [Compound 4-HC, 4-hydroxycoumarin, reference compound]
% ICPE (carrageenin-induced rat paw oedema inhibition) [2]: 62 * % | AAPH % (% inhibition of lipid peroxidation) [5]: 100%
